Measured values from the NIST ThermoML archive (doi:10.1016/j.jct.2012.07.018).
± gives the expanded uncertainty stated by the source.

Assays:
[1] = molar heat capacity at constant pressure; conditions: Liquid, Flow calorimetry
[2] = molar heat capacity at constant pressure; xn = mol fraction of the nth substance listed; conditions: 313.15 K, Liquid, Flow calorimetry

C1CCCCC1 [cyclohexane]
molar heat capacity at constant pressure [J/K/mol], [1]
Conditions	100 kPa	5000 kPa	10000 kPa	15000 kPa	20000 kPa
293.15 K	154.1 ± 1.6	152 ± 1.5	151.1 ± 1.5	149.9 ± 1.5	148.7 ± 1.5
313.15 K	162.7 ± 1.6	160.7 ± 1.6	158.8 ± 1.6	157.3 ± 1.6	155.9 ± 1.6
333.15 K	171 ± 1.7	169.1 ± 1.7	166.8 ± 1.7	164.9 ± 1.7	163.4 ± 1.7

C1CCCCC1 [cyclohexane] + C=CCCCC
[2], x1 = 1
Conditions	molar heat capacity at constant pressure [J/K/mol]
100 kPa	162.7 ± 1.6
5000 kPa	160.7 ± 1.6
10000 kPa	158.8 ± 1.6
15000 kPa	157.3 ± 1.6
20000 kPa	155.9 ± 1.6

C1CCCCC1 [cyclohexane] + CCO
molar heat capacity at constant pressure [J/K/mol], [2]
Conditions	x1 = 0.1	x1 = 0.1999	x1 = 0.2999	x1 = 0.4	x1 = 0.5002	x1 = 0.6	x1 = 0.7002	x1 = 0.8	x1 = 0.8999	x1 = 1
100 kPa	127.8 ± 1.3	134.2 ± 1.4	140.2 ± 1.4	146.9 ± 1.5	152.7 ± 1.5	158.2 ± 1.6	163.3 ± 1.7	167.6 ± 1.7	169.9 ± 1.7	162.7 ± 1.6
5000 kPa	126.5 ± 1.3	132.9 ± 1.3	138.8 ± 1.4	145.2 ± 1.5	151 ± 1.5	155.9 ± 1.6	161 ± 1.6	165.2 ± 1.7	167.3 ± 1.7	160.7 ± 1.6
10000 kPa	125 ± 1.3	131 ± 1.3	137.1 ± 1.4	143.1 ± 1.4	149 ± 1.5	154 ± 1.6	159 ± 1.6	163.1 ± 1.6	165.5 ± 1.7	158.8 ± 1.6
15000 kPa	123.7 ± 1.3	130.2 ± 1.3	135.7 ± 1.4	141.3 ± 1.4	147 ± 1.5	152.9 ± 1.5	157.6 ± 1.6	161.3 ± 1.6	163.3 ± 1.7	157.3 ± 1.6
20000 kPa	122.8 ± 1.2	129.5 ± 1.3	134.9 ± 1.4	140.7 ± 1.4	146.6 ± 1.5	149 ± 1.5	156.3 ± 1.6	160.5 ± 1.6	162.5 ± 1.6	155.9 ± 1.6

CCO [ethanol]
[1], 313.15 K
Conditions	molar heat capacity at constant pressure [J/K/mol]
100 kPa	119.2 ± 1.2
5000 kPa	118 ± 1.2
10000 kPa	116.8 ± 1.2
15000 kPa	115.5 ± 1.2
20000 kPa	114.9 ± 1.2

CCO [ethanol] + C1CCCCC1
[2], x2 = 0
Conditions	molar heat capacity at constant pressure [J/K/mol]
100 kPa	119.2 ± 1.2
5000 kPa	118 ± 1.2
10000 kPa	116.8 ± 1.2
15000 kPa	115.5 ± 1.2
20000 kPa	114.9 ± 1.2

CCO [ethanol] + C=CCCCC
[2], x2 = 0
Conditions	molar heat capacity at constant pressure [J/K/mol]
100 kPa	119.2 ± 1.2
5000 kPa	118 ± 1.2
10000 kPa	116.8 ± 1.2
15000 kPa	115.5 ± 1.2
20000 kPa	114.9 ± 1.2

C=CCCCC [hex-1-ene]
molar heat capacity at constant pressure [J/K/mol], [1]
Conditions	100 kPa	5000 kPa	10000 kPa	15000 kPa	20000 kPa
273.15 K	177.2 ± 1.8	170.8 ± 1.7	168.3 ± 1.7	166.3 ± 1.7	165.3 ± 1.7
293.15 K	184.8 ± 1.9	178.6 ± 1.8	175.1 ± 1.8	172.6 ± 1.7	172.1 ± 1.7
313.15 K	190.7 ± 1.9	186.6 ± 1.9	182.9 ± 1.8	180.4 ± 1.8	178.2 ± 1.8

C=CCCCC [hex-1-ene] + C1CCCCC1
molar heat capacity at constant pressure [J/K/mol], [2]
Conditions	x2 = 0	x2 = 0.1	x2 = 0.2	x2 = 0.2999	x2 = 0.4001	x2 = 0.5	x2 = 0.6001	x2 = 0.7	x2 = 0.8	x2 = 0.9
100 kPa	190.7 ± 1.9	187.6 ± 1.9	184.3 ± 1.9	181.3 ± 1.8	178 ± 1.8	175.2 ± 1.8	172.5 ± 1.7	169.7 ± 1.7	167.2 ± 1.7	165.1 ± 1.7
5000 kPa	186.6 ± 1.9	181.3 ± 1.8	180.5 ± 1.8	176.8 ± 1.8	174.2 ± 1.8	171.6 ± 1.7	169.6 ± 1.7	167.3 ± 1.7	163.8 ± 1.7	162.2 ± 1.6
10000 kPa	182.9 ± 1.8	179.7 ± 1.8	176.9 ± 1.8	173.9 ± 1.8	172.2 ± 1.7	169.1 ± 1.7	167 ± 1.7	164.9 ± 1.7	162.3 ± 1.6	160 ± 1.6
15000 kPa	180.4 ± 1.8	177.2 ± 1.8	174.8 ± 1.8	171.7 ± 1.7	169.9 ± 1.7	167.6 ± 1.7	165.4 ± 1.7	163.3 ± 1.7	160.2 ± 1.6	158.1 ± 1.6
20000 kPa	178.2 ± 1.8	175.4 ± 1.8	173.5 ± 1.8	170.8 ± 1.7	168.6 ± 1.7	166.2 ± 1.7	163.9 ± 1.7	162.1 ± 1.6	159.6 ± 1.6	157.9 ± 1.6

C=CCCCC [hex-1-ene] + CCO
molar heat capacity at constant pressure [J/K/mol], [2]
Conditions	x1 = 0.0999	x1 = 0.2	x1 = 0.3	x1 = 0.3998	x1 = 0.4998	x1 = 0.6	x1 = 0.7001	x1 = 0.8003	x1 = 0.9003	x1 = 1
100 kPa	130.7 ± 1.3	142 ± 1.4	152 ± 1.5	161.5 ± 1.6	171.8 ± 1.7	–	186.4 ± 1.9	192.3 ± 1.9	197 ± 2	190.7 ± 1.9
5000 kPa	129 ± 1.3	139.8 ± 1.4	149.7 ± 1.5	158.9 ± 1.6	167.9 ± 1.7	175.4 ± 1.8	182.2 ± 1.8	188.7 ± 1.9	191.2 ± 1.9	186.6 ± 1.9
10000 kPa	127.3 ± 1.3	138 ± 1.4	147.2 ± 1.5	156.2 ± 1.6	165.1 ± 1.7	172.6 ± 1.7	179 ± 1.8	184.7 ± 1.9	188.5 ± 1.9	182.9 ± 1.8
15000 kPa	126 ± 1.3	136.6 ± 1.4	145.7 ± 1.5	153.7 ± 1.6	163.1 ± 1.6	170.2 ± 1.7	176.3 ± 1.8	181.6 ± 1.8	185.1 ± 1.9	180.4 ± 1.8
20000 kPa	125 ± 1.3	135.4 ± 1.4	144.3 ± 1.5	152.9 ± 1.5	161.4 ± 1.6	168.4 ± 1.7	174.7 ± 1.8	178.5 ± 1.8	183.4 ± 1.9	178.2 ± 1.8
